PMC10336507 (Heliyon, 2023)

Target: M. SssI MTase (Spiroplasma monobiae, UniProt P15840)
Assay: coupled fluorescence turn-off DNA methylation assay
Format: biochemical

M. SssI MTase, sequence (P15840 whole entry): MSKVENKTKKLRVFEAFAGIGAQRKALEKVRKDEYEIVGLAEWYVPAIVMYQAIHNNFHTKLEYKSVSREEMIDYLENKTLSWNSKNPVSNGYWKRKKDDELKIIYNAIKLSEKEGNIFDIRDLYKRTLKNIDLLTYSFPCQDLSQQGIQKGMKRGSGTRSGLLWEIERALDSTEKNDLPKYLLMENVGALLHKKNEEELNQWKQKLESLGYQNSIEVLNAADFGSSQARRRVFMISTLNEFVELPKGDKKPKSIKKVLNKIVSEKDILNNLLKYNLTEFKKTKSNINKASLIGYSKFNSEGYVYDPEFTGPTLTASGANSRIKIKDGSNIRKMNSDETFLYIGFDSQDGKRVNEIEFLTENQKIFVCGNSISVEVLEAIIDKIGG

IC50: 3.76 µM
SMILES: Nc1ncn([C@@H]2O[C@H](CO)[C@@H](O)[C@H]2O)c(=O)n1 [5-Aza, 5-Azacytidine]
